In patent US20260049101A1, “TOPICAL TREATMENT OF SKIN CANCER USING OLIGOPEPTIDES” (BACOBA AG, priority 2022, published 2026):
“Also recorded” adds a separate entry of the source. Like-named read-outs stand apart in the source and are kept apart here. Numbered stars: 1 amine (or outer) side, 2 acyl side, 3 side chain; on linkers, the order of the positions; unused ones are H or OH. Square brackets hold non-standard residues; d marks the D form. Peptide text beside a SMILES is read from it. * marks the point of attachment. X1 = CCC(=O)C[C@H](O)C[C@@H](C)C[C@H](N[*:1])C(=O)[*:2]; Hexenoyl(2E,4S-Me) = CC[C@H](C)/C=C/C(=O)*; Leu(3R-OH) = CC(C)[C@@H](O)[C@H](N)C(=O)O; Abu(4,4,4-F3) = N[C@@H](CC(F)(F)F)C(=O)O; NH((S)CH(Me)CH2NMe2) = C[C@@H](CN(C)C)N*; Pro(4S-Me) = C[C@@H]1CN[C@H](C(=O)O)C1; NH(1-CH2NMe2-cBu) = CN(C)CC1(N*)CCC1; Benzoyl(4-F) = O=C(c1ccc(F)cc1)*; hCha = N[C@@H](CCC1CCCCC1)C(=O)O; β3hL = CC(C)C[C@H](N)CC(=O)O; Aib = CC(C)(N)C(=O)O; βAla = NCCC(=O)O

What was measured:
[1] = test system: patient derived Basal Cell Carcinoma (BCC); assay type: cell-based, human; details: 20 μM, 4 days, vs DMSO
[2] = test system: patient derived Basal Cell Carcinoma (BCC); assay type: cell-based, human; details: 20 μM, 4 days, vs DMSO; p<0.002
Source text: Tumour material was harvested from an infiltrative basal cell carcinoma (BCC) from a patient's nose.

[3] = Dermal tolerability in the in vivo efficacy test; parameters: species or system mouse
Experimental: (§1) In vivo efficacy test methodology. C57Bl/6 mice (Janvier Labs); females; 6-8 weeks old at beginning of the treatment. The tumour was induced through intradermal inoculation of 1×10^5 cells per mouse intradermally in the skin of the neck. A total of 24 mice were used (n=8 for vehicle, n=8 for 5% 6027, n=8 for leucinostatin A 0.2%). Test item was applied starting on day 1 after inoculation of the tumour cells. The test items of 20 μl of 5% 6027 and of 0.2% Leucinostatin A were applied dermally with a pipette once a day every day for up to 21 days to the intact skin area of about 1 cm^2 on the site were the B16-F10 cells had been injected. If ulceration occurred then the animal was removed from the test and sacrificed.

[4] = test system: B16F10 xenografts in C57BL/6 mice; assay: In vivo efficacy test, dermal treatment of intradermal B16-F10 tumours (tumour volume); parameters: species or system mouse; details: 20 μl of 0.2% leucinostatin A dermally, treatment not continued longer than 7 days, observed to day 16
Experimental: as §1
The read out was tumour volume measured three times a week expressed as tumour volume (in cm^3). Additionally, tumour samples were taken for histological analysis (Tumour FFPE) (2 mice per group).

[5] = test system: cutaneous squamous cell carcinoma cell line SCC12; assay: In vitro anti-proliferative assay (resazurin) in SCC12; assay type: cell-based; details: SCC12, 72 hours
Source text: Methodology. The cutaneous squamous cell carcinoma cell culture SCC12 was cultivated in keratinocyte-SFM media (KSFM, Cat #17005042, Gibco) supplemented with human recombinant epidermal growth factor 1-53 (EGF 1-53) and bovine pituitary extract (BFE).
Vehicle treated wells were set to 100% viability.

CS(=O)(=O)c1ccc(C(=O)Nc2ccc(Cl)c(-c3ccccn3)c2)c(Cl)c1 [Vismodegib, reference compound]
apoptotic cells (TUNEL positive cells) [1]: Significant increase
cell proliferation (Ki67) [1]: significantly reduced
cell proliferation (Ki67) [2]: significantly reduced

CCC(=O)C[C@H](O)C[C@@H](C)C[C@H](NC(=O)[C@@H]1C[C@H](C)CN1C(=O)/C=C/[C@@H](C)CC)C(=O)N[C@H](C(=O)NC(C)(C)C(=O)N[C@@H](CC(C)C)C(=O)N[C@@H](CC(C)C)C(=O)NC(C)(C)C(=O)NC(C)(C)C(=O)NCCC(=O)N[C@@H](C)CN(C)C)[C@H](O)C(C)C [leucinostatin A, reference compound] ({Hexenoyl(2E,4S-Me)}-[Pro(4S-Me)][X1][Leu(3R-OH)][Aib]LL[Aib][Aib][βAla]-{NH((S)CH(Me)CH2NMe2)}; N-terminus and C-terminus assumed)
skin irritation ([3]; 0.2% leucinostatin A (lowest test concentration)): strong skin irritation with destruction of the epidermis; also recorded: strong skin irritating effect
tolerability of dermal treatment ([3]; 0.2% leucinostatin A once a day): not tolerated
reduction of tumour volume [4]: no significant reduction of tumour volume

CN(C)CC1(NC(=O)CCNC(=O)C(C)(C)NC(=O)C(C)(C)NC(=O)[C@H](CC(F)(F)F)NC(=O)[C@H](CC(F)(F)F)NC(=O)C(C)(C)NC(=O)[C@H](CC(F)(F)F)NC(=O)[C@H](CCC2CCCCC2)NC(=O)[C@@H]2CCCN2C(=O)c2ccc(F)cc2)CCC1 [Compound 21372, (2S)-4-cyclohexyl-N-[(1S)-1-[(1-{[(1S)-1-{[(1S)-1-({1-[(1-{[2-({1-[(dimethylamino)methyl]cyclobutyl}carbamoyl)ethyl]carbamoyl}-1-methylethyl)carbamoyl]-1-methylethyl}carba-moyl)-3,3,3-trifluoropropyl]carbamoyl}-3,3,3-trifluoropropyl]carbamoyl}-1-methylethyl)carbamoyl]-3,3,3-trifluoropropyl]-2-{[(2S)-1-(4-fluorobenzoyl)pyrrolidin-2-yl]formamido}butanamide] ({Benzoyl(4-F)}-P[hCha][Abu(4,4,4-F3)][Aib][Abu(4,4,4-F3)][Abu(4,4,4-F3)][Aib][Aib][βAla]-{NH(1-CH2NMe2-cBu)})
IC50 [5]: 442 nM

CC(C)C[C@@H](CC(=O)NC(C)(C)C(=O)N[C@@H](CC(C)C)C(=O)N[C@@H](CC(C)C)C(=O)NC(C)(C)C(=O)NC(C)(C)C(=O)NCCC(=O)NC1(CN(C)C)CCC1)NC(=O)[C@H](CCC1CCCCC1)NC(=O)[C@@H]1CCCN1C(=O)c1ccc(F)cc1 [Compound 21314, (3S)-3-[(2S)-4-cyclohexyl-2-{[(2S)-1-(4-fluorobenzoyl)pyrrolidin-2-yl]formamido}butan-amido]-N-(1-{[(1S)-1-{[(1S)-1-({1-[(1-{[2-({1-[(dimethylamino)methyl]cyclobutyl}carba-moyl)ethyl]carbamoyl}-1-methylethyl)carbamoyl]-1-methylethyl}carbamoyl)-3-methylbutyl]carbamoyl}-3-methylbutyl]carbamoyl}-1-methylethyl)-5-methylhexanamide] ({Benzoyl(4-F)}-P[hCha][β3hL][Aib]LL[Aib][Aib][βAla]-{NH(1-CH2NMe2-cBu)})
IC50 [5]: 324 nM
